Laboratory results reported in BindingDB's records for patent US20240132491 (Medshine Discovery, 2024).

Molecular target: Programmed cell death 1 ligand/protein 1 (Homo sapiens, UniProt Q9NZQ7)
Assay: PD-L1 Binding Assay
Description: Experimental Materials:PD1:PD-L1 TR-FRET assay kit, purchased from BPS Biosciences. Nivo multimode microplate reader (PerkinElmer)Experimental Method:PD1-Eu, dye-labeled acceptor, PD-L1-biotin, and compound to be tested were all diluted using the buffer in the kit.The compound to be tested was diluted 5-fold to the 8th concentration, i.e., from 4 μM to 0.05 nM, and the DMSO concentration was 4%. The experiment was set up in duplicate wells. 5 μL of each concentration gradient of the compound to be tested was added to a microtiter plate, wherein 5 μL of a buffer containing 4% DMSO and 5 μL of PD-L1-biotin (60 nM) was added to the Max signal well, and only 5 μL of buffer was added to the Min signal well. The plate was incubated at 25° C. for 20 minutes. After the incubation, 5 μL of diluted PD1-Eu (10 nM) and 5 μL of diluted dye-labeled acceptor were added to each well. The system was reacted at 25° C. for 90 minutes. After the reaction, the multimode microplate reader was used to read the time-resolved fluorescence analysis signal.

Programmed cell death 1 ligand/protein 1, sequence (Q9NZQ7 whole entry): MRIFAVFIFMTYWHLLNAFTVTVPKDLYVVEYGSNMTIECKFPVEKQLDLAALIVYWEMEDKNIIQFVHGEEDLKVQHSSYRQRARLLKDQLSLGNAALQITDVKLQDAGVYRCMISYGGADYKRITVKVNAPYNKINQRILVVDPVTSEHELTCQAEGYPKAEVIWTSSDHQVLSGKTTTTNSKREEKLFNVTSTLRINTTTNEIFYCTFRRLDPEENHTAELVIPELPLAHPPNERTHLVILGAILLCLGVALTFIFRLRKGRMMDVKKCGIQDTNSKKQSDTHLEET
Programmed cell death 1 ligand/protein 1, sequence (Q15116 whole entry, further chain): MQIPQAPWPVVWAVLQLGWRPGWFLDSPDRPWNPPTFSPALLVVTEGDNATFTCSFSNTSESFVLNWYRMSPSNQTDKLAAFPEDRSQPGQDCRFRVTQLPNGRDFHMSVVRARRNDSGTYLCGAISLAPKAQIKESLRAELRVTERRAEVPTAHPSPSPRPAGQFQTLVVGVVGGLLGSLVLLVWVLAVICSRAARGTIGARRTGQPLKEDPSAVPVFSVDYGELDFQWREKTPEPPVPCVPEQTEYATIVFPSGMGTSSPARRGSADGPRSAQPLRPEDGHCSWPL

SMILES: COc1nc(-c2cccc(-c3cccc4c3CCN4c3nccc4cc(CN5CC[C@@H](O)C5)cnc34)c2Cl)ccc1CNC[C@@H]1CCC(=O)N1 [US20240132491, Example 1]
- IC50: 1.95 nM
